# Source: patent US20140205537A1, “LRRK2 INHIBITORS” (ZENOBIA THERAPEUTICS, INC., priority 2011, published 2014)
# What was measured:
# RET = RET (Homo sapiens, UniProt P07949); assay: Kinase selectivity panel: RET; type: biochemical
# Tie2 = Tie2 (Homo sapiens, UniProt Q02763); assay: Kinase selectivity panel: Tie2; type: biochemical
# IGF1R = IGF1R (Homo sapiens, UniProt P08069); assay: Kinase selectivity panel: IGF1R; type: biochemical
# CAMK2D = CAMK2D (Homo sapiens, UniProt Q13557); assay: Kinase selectivity panel: CAMK2D; type: biochemical
# IKKbeta = IKKbeta (Homo sapiens, UniProt O14920); assay: Kinase selectivity panel: IKKbeta; type: biochemical
# ROCK1 = ROCK1 (Homo sapiens, UniProt Q13464); assay: Kinase selectivity panel: ROCK1; type: biochemical
# HER2 = HER2 (Homo sapiens, UniProt P04626); assay: Kinase selectivity panel: HER2; type: biochemical
# G2019S LRRK2 = G2019S LRRK2 (Homo sapiens, UniProt Q5S007, G2019S); assay: DiscoveRx KINOMEscan binding constant (Kd); design: purchased DiscoveRx (KINOMEscan service); host or cells: E. coli BL21-derived host (T7 phage) or HEK-293; conditions: numeric value
# Procedure: Compounds of formulas (II), (I), (I-A), (I-B), (I-C), (I-D), (I-D-1), (I-D-2), (I-E), (I-F), (I-G), (I-H), (I-I), (I-I-1), (I-I-2), (I-J), (I-K), (I-L), (I-M), (I-N), (I-Z-1), (I-Z-2), (I-Z-2-a), (I-Z-2-b), (I-Z-2-c), (I-Z-2-d), (I-Z-3-a), (I-Z-3-b), (I-Z-3-c), or (I-Z-3-d) were tested using DiscoveRx's KINOMEscan™ technology to measure a binding constant (Kd) to wild type and G2019S LRRK2. Kinase-tagged T7 phage strains were prepared in an E. coli host derived from the BL21 strain. E. coli were grown to log-phase and infected with T7 phage and incubated with shaking at 32° C. until lysis. The lysates were centrifuged and filtered to remove cell debris. The remaining kinases were produced in HEK-293 cells and subsequently tagged with DNA for qPCR detection. Streptavidin-coated magnetic beads were treated with biotinylated small molecule ligands for 30 minutes at room temperature to generate affinity resins for kinase assays. The liganded beads were blocked with excess biotin and washed with blocking buffer (SeaBlock (Pierce), 1% BSA, 0.05% Tween 20, 1 mM DTT) to remove unbound ligand and to reduce non-specific binding. Binding reactions were assembled by combining kinases, liganded affinity beads, and test compounds in 1× binding buffer (20% SeaBlock, 0.17×PBS, 0.05% Tween 20, 6 mM DTT). All reactions were performed in polystyrene 96-well plates in a final volume of 0.135 ml. The assay plates were incubated at room temperature with shaking for 1 hour and the affinity beads were washed with wash buffer (lx PBS, 0.05% Tween 20). The beads were then re-suspended in elution buffer (lx PBS, 0.05% Tween 20, 0.5 μM non-biotinylated affinity ligand) and incubated at room temperature with shaking for 30 minutes. The kinase concentration in the eluates was measured by qPCR. An 11-point 3-fold serial dilution of each test compound was prepared in 100% DMSO at 100× final test concentration and subsequently diluted to 1× in the assay (final DMSO concentration=[…]). Most Kds were determined using a compound top concentration=30,000 nM.
# P38 alpha = P38 alpha (Homo sapiens, UniProt Q16539); assay: Kinase selectivity panel: P38 alpha; type: biochemical
# CAMK2D, sequence (Q13557 whole entry, species assumed): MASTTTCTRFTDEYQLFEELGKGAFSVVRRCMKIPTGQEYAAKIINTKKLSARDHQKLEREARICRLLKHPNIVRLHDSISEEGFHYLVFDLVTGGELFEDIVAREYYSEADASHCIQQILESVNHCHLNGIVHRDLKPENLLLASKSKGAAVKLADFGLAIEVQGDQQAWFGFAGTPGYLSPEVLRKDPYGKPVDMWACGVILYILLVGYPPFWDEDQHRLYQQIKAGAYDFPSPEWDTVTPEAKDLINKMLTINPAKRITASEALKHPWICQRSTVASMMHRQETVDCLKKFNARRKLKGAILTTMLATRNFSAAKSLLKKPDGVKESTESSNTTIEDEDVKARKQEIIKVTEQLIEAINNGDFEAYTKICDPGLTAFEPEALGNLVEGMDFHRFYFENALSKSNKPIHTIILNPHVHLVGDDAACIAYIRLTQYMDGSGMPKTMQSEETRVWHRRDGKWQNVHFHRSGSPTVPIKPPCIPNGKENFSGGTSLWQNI
# IKKbeta, sequence (O14920 whole entry, species assumed): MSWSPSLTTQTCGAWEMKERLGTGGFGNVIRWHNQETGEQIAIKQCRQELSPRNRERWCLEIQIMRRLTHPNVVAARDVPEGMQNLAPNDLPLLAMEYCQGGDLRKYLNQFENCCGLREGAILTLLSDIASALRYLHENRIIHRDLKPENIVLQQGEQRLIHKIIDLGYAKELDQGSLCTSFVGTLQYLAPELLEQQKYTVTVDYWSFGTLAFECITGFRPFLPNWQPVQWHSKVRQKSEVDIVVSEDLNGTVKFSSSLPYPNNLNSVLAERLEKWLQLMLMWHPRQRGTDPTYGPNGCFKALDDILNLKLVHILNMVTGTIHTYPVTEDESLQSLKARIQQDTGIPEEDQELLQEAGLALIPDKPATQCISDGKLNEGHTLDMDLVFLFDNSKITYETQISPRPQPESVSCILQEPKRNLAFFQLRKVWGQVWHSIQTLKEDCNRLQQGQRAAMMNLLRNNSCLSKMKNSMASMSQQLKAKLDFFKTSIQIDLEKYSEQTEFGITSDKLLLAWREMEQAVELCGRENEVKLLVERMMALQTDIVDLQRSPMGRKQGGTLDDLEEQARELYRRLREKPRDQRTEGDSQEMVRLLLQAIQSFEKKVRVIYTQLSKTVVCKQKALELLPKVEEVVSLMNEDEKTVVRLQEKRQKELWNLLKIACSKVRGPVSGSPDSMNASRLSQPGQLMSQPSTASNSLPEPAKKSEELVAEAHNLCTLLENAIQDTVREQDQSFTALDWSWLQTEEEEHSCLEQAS
# G2019S LRRK2, sequence (Q5S007 whole entry G2019S): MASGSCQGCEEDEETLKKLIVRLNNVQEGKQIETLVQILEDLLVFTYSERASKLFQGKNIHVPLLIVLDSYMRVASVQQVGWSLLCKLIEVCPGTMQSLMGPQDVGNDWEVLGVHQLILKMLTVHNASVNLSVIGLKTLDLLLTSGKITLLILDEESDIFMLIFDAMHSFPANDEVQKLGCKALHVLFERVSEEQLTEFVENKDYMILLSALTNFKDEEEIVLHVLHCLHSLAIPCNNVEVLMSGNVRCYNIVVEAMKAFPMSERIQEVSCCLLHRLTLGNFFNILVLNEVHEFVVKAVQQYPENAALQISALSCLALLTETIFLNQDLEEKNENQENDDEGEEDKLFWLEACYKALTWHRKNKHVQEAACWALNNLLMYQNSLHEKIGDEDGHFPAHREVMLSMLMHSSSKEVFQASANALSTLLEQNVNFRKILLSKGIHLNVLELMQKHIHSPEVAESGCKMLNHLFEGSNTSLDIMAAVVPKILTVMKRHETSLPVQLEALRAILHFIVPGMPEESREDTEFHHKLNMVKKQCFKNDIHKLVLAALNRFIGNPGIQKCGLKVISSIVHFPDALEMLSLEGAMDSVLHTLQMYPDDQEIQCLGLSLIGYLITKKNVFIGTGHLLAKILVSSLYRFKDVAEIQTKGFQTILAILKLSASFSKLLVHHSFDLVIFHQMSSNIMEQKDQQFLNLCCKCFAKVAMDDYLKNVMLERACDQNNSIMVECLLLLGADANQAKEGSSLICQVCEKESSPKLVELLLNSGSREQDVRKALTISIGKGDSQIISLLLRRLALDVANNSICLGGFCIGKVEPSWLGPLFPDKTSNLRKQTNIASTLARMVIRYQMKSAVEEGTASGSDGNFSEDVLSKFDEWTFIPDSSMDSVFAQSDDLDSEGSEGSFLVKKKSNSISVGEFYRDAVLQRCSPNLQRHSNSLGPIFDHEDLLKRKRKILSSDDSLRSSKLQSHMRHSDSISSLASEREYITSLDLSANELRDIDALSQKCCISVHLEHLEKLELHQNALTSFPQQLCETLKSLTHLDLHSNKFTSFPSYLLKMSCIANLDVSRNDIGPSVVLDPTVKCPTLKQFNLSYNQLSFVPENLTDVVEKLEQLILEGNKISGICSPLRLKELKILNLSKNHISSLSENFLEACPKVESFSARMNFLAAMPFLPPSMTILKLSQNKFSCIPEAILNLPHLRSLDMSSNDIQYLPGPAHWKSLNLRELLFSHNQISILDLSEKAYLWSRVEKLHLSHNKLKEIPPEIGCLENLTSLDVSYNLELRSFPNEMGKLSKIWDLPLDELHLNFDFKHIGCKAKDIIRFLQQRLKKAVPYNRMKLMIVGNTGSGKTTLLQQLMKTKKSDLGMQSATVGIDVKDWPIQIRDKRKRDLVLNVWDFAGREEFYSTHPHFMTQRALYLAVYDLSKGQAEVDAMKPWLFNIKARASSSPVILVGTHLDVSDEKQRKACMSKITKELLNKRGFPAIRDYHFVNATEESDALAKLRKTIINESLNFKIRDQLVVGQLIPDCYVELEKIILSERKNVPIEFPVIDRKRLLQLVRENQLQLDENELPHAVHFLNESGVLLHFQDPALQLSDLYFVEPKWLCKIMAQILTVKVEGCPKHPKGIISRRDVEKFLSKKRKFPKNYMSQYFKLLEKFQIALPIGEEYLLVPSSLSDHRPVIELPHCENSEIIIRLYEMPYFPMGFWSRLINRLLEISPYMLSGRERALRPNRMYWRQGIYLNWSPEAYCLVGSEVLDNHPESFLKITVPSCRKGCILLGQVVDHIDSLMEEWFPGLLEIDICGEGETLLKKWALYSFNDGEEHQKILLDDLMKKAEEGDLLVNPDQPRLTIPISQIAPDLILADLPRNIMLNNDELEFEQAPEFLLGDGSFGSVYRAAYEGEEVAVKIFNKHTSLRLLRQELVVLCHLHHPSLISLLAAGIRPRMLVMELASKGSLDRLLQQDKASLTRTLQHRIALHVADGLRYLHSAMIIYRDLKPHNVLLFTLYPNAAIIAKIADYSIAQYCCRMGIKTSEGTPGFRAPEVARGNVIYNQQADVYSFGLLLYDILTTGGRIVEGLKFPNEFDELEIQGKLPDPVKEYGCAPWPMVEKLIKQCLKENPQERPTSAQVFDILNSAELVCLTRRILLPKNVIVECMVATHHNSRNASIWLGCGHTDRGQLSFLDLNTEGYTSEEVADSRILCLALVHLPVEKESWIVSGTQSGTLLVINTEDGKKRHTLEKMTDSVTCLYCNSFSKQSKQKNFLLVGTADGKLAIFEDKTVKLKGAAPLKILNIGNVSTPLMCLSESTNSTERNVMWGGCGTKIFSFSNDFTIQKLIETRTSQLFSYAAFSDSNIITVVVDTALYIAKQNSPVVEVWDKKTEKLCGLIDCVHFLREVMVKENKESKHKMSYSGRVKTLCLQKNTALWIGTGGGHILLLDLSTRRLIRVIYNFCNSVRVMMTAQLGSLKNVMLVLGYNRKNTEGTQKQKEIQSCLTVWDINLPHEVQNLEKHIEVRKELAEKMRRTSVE
# RET, sequence (P07949 29-1114, species assumed): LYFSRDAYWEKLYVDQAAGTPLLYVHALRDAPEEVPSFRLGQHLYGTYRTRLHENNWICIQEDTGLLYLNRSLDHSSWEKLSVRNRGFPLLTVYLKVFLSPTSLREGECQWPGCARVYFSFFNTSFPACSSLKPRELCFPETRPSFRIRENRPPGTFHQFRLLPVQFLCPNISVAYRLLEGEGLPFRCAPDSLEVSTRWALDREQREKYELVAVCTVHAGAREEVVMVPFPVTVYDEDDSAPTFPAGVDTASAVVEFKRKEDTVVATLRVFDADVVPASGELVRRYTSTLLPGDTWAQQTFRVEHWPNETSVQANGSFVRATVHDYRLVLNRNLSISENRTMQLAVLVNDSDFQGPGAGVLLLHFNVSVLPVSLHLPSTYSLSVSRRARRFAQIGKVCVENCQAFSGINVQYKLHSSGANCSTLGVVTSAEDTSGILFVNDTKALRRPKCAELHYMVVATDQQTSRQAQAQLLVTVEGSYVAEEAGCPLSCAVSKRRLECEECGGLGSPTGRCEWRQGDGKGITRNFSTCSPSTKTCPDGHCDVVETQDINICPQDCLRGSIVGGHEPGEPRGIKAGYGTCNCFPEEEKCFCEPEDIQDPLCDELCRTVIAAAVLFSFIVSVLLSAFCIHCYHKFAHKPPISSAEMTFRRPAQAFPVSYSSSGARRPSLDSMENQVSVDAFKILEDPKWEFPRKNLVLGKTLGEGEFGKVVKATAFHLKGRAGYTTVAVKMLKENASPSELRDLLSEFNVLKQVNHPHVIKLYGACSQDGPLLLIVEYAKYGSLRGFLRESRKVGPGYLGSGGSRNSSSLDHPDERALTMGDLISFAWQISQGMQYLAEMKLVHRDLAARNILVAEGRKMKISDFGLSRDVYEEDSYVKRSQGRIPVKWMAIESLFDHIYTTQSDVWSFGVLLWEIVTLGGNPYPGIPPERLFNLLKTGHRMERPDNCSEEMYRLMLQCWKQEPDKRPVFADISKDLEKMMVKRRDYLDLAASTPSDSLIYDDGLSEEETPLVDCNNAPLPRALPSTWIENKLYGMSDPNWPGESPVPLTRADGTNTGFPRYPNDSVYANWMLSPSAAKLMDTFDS
structure (smiles),measurement,setting,value
"COc1ccc2c(c1)/C(=C/c1cnc(C3CCOCC3)[nH]1)C(=O)N2 [Compound 18, (3Z)-5-methoxy-3-[(2-tetrahydropyran-4-yl-1H-imidazol-5-yl)methylene]indolin-2-one]",inhibition at 0.1 µM,RET,3%
same,inhibition at 0.1 µM,Tie2,-2%
same,inhibition at 0.1 µM,IGF1R,7%
same,IC50,CAMK2D,276 nM
same,inhibition at 0.1 µM,CAMK2D; @0.1 uM,41%
same,inhibition at 0.1 µM,IKKbeta,7%
same,inhibition at 0.1 µM,ROCK1,1%
same,inhibition at 0.1 µM,HER2,4%
same,Kd,G2019S LRRK2,95 nM
same,inhibition at 0.1 µM,P38 alpha,12%
